Assay results published in patent US6355799B1, “Substituted benzene compounds, process for their preparation, and herbicidal and defoliant compositions containing them” (ISK Americas Incorporated, priority 1997, dated 2002).

Legend:
Type in all cases: in vivo
[1] = test system: barnyardgrass (Echinochloa crus-galli, ECHCG); assay: Pre-emerge test, greenhouse herbicide activity screening; conditions: rated 14 days after application, 0 = no damage, 100 = complete death
Outline: (§1)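 Plants grown in 10 cm pots of sandy loam mix received acetone-dissolved compounds through a moving flat-fan nozzle. Doses ranged from 15 to 1000 g ai/ha. Pre-emerge pots were seeded one day earlier, post-emerge pots 8–21 days earlier. Fourteen days on, each pot was graded 0–100 for damage.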

[2] = test system: sicklepod (Cassia obtusifolia, CASOB); assay: as above; conditions: rated 14 days after application, 0 = no damage, 100 = complete death
Outline: as §1

[3] = test system: ivyleaf morningglory (Ipomoea hederacea, IPOHE); assay: as above; conditions: rated 14 days after application, 0 = no damage, 100 = complete death
Outline: as §1

[4] = test system: lambsquarters (Chenopodium album, CHEAL); assay: as above; conditions: rated 14 days after application, 0 = no damage, 100 = complete death
Outline: as §1

[5] = test system: large crabgrass (Digitaria sanguinalis, DIGSA); assay: as above; conditions: rated 14 days after application, 0 = no damage, 100 = complete death
Outline: as §1

[6] = test system: velvetleaf (Abutilon theophrasti, ABUTH); assay: as above; conditions: rated 14 days after application, 0 = no damage, 100 = complete death
Outline: as §1

[7] = test system: johnsongrass (Sorghum halepense, SORHA); assay: as above; conditions: rated 14 days after application, 0 = no damage, 100 = complete death
Outline: as §1

[8] = test system: green foxtail (Setaria viridis, SETVI); assay: as above; conditions: rated 14 days after application, 0 = no damage, 100 = complete death
Outline: as §1

[9] = test system: redroot pigweed (Amaranthus retroflexus, AMARE); assay: as above; conditions: rated 14 days after application, 0 = no damage, 100 = complete death
Outline: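 Rating: 0–100 visual injury, 14 DAA. Application: acetone, 187 l/ha, 15–1000 g ai/ha, flat-fan track sprayer with nozzle 40–45 cm above soil or canopy. Post-emerge runs used 0.25% v/v surfactant on 2–3 leaf plants.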

[10] = test system: field corn (Zea mays L., var. Dekalb 535, CORN); assay: Post-emerge test, crop safety; conditions: post-emerge, 14 days after application, rating scale 0-100
Outline: (§2)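 Each test used a mechanized track sprayer delivering 187 l/ha of acetone solution at 15–1000 g ai/ha. Post-emerge foliage at 2–3 leaves was treated with added 0.25% v/v non-ionic surfactant and bottom-watered only. Injury was assessed on day 14, where 100 means total kill.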

[11] = test system: upland rice (Oryza sp., var. Tebonnet, RICE); assay: Post-emerge test, crop safety; conditions: post-emerge, 14 days after application, rating scale 0-100
Outline: as §2

[12] = test system: barnyardgrass (Echinochloa crus-galli, ECHCG); assay: Post-emerge test, greenhouse herbicide activity screening; conditions: post-emerge, 14 days after application, rating scale 0-100
Outline: (§3)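 Applied at 15–1000 g ai/ha from acetone in 187 l/ha spray volume. Post-emergence applications included 0.25% v/v non-ionic surfactant and reached plants sown 8–21 days before. Pre-emergence applications were incorporated by surface watering. Efficacy or crop damage was rated on a 0–100 scale after 14 days.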

[13] = test system: redroot pigweed (Amaranthus retroflexus, AMARE); assay: as above; conditions: post-emerge, 14 days after application, rating scale 0-100
Outline: as §3

[14] = test system: sicklepod (Cassia obtusifolia, CASOB); assay: as above; conditions: post-emerge, 14 days after application, rating scale 0-100
Outline: as §3

[15] = test system: ivyleaf morningglory (Ipomoea hederacea, IPOHE); assay: as above; conditions: post-emerge, 14 days after application, rating scale 0-100
Outline: as §3

[16] = test system: lambsquarters (Chenopodium album, CHEAL); assay: as above; conditions: post-emerge, 14 days after application, rating scale 0-100
Outline: as §3

[17] = test system: large crabgrass (Digitaria sanguinalis, DIGSA); assay: as above; conditions: post-emerge, 14 days after application, rating scale 0-100
Outline: as §3

[18] = test system: velvetleaf (Abutilon theophrasti, ABUTH); assay: as above; conditions: post-emerge, 14 days after application, rating scale 0-100
Outline: as §3

[19] = test system: johnsongrass (Sorghum halepense, SORHA); assay: as above; conditions: post-emerge, 14 days after application, rating scale 0-100
Outline: as §3

[20] = test system: green foxtail (Setaria viridis, SETVI); assay: as above; conditions: post-emerge, 14 days after application, rating scale 0-100
Outline: as §3

[21] = test system: field corn (Zea mays L., var. Dekalb 535, CORN); assay: Pre-emerge test, crop safety; conditions: rated 14 days after application, 0 = no damage, 100 = complete death
Outline: as §3

[22] = test system: upland rice (Oryza sp., var. Tebonnet, RICE); assay: Pre-emerge test, crop safety; conditions: rated 14 days after application, 0 = no damage, 100 = complete death
Outline: as §3

## COc1c(Cl)cc(F)c(-n2c(=O)cc(C(F)(F)F)n(C)c2=O)c1NC(=O)C=Cc1ccc(Cl)cc1 [2-84]
[1]; 63 g ai/ha
  Pre-emerge Herbicidal Activity, phytotoxicity rating (0-100), ECHCG: 0
[1]; 250 g ai/ha
  Pre-emerge Herbicidal Activity, phytotoxicity rating (0-100), ECHCG: 0
[2]; 63 g ai/ha
  Pre-emerge Herbicidal Activity, phytotoxicity rating (0-100), CASOB: 0
[2]; 250 g ai/ha
  Pre-emerge Herbicidal Activity, phytotoxicity rating (0-100), CASOB: 0
[3]; 63 g ai/ha
  Pre-emerge Herbicidal Activity, phytotoxicity rating (0-100), IPOHE: 0
[3]; 250 g ai/ha
  Pre-emerge Herbicidal Activity, phytotoxicity rating (0-100), IPOHE: 0
[4]; 63 g ai/ha
  Pre-emerge Herbicidal Activity, phytotoxicity rating (0-100), CHEAL: 40
[4]; 250 g ai/ha
  Pre-emerge Herbicidal Activity, phytotoxicity rating (0-100), CHEAL: 100
[5]; 63 g ai/ha
  Pre-emerge Herbicidal Activity, phytotoxicity rating (0-100), DIGSA: 00
[5]; 250 g ai/ha
  Pre-emerge Herbicidal Activity, phytotoxicity rating (0-100), DIGSA: 0
[6]; 63 g ai/ha
  Pre-emerge Herbicidal Activity, phytotoxicity rating (0-100), ABUTH: 0
[6]; 250 g ai/ha
  Pre-emerge Herbicidal Activity, phytotoxicity rating (0-100), ABUTH: 80
[7]; 63 g ai/ha
  Pre-emerge Herbicidal Activity, phytotoxicity rating (0-100), SORHA: 0
[7]; 250 g ai/ha
  Pre-emerge Herbicidal Activity, phytotoxicity rating (0-100), SORHA: 0
[8]; 63 g ai/ha
  Pre-emerge Herbicidal Activity, phytotoxicity rating (0-100), SETVI: 0
[8]; 250 g ai/ha
  Pre-emerge Herbicidal Activity, phytotoxicity rating (0-100), SETVI: 50
[9]; 63 g ai/ha
  Pre-emerge Herbicidal Activity, phytotoxicity rating (0-100), AMARE: 80
[9]; 250 g ai/ha
  Pre-emerge Herbicidal Activity, phytotoxicity rating (0-100), AMARE: 100
[10]; 63 g ai/ha
  phytotoxicity rating CORN: 10
[10]; 250 g ai/ha
  phytotoxicity rating CORN: 10
[11]; 63 g ai/ha
  phytotoxicity rating RICE: 0
[11]; 250 g ai/ha
  phytotoxicity rating RICE: 20
[12]; 63 g ai/ha
  phytotoxicity rating ECHCG: 0
[12]; 250 g ai/ha
  phytotoxicity rating ECHCG: 0
[13]; 63 g ai/ha
  phytotoxicity rating AMARE: 80
[13]; 250 g ai/ha
  phytotoxicity rating AMARE: 100
[14]; 63 g ai/ha
  phytotoxicity rating CASOB: 20
[14]; 250 g ai/ha
  phytotoxicity rating CASOB: 100
[15]; 63 g ai/ha
  phytotoxicity rating IPOHE: 30
[15]; 250 g ai/ha
  phytotoxicity rating IPOHE: 70
[16]; 63 g ai/ha
  phytotoxicity rating CHEAL: 30
[16]; 250 g ai/ha
  phytotoxicity rating CHEAL: 80
[17]; 63 g ai/ha
  phytotoxicity rating DIGSA: 0
[17]; 250 g ai/ha
  phytotoxicity rating DIGSA: 0
[18]; 63 g ai/ha
  phytotoxicity rating ABUTH: 30
[18]; 250 g ai/ha
  phytotoxicity rating ABUTH: 100
[19]; 63 g ai/ha
  phytotoxicity rating SORHA: 0
[19]; 250 g ai/ha
  phytotoxicity rating SORHA: 0
[20]; 63 g ai/ha
  phytotoxicity rating SETVI: 30
[20]; 250 g ai/ha
  phytotoxicity rating SETVI: 0
[21]; 63 g ai/ha
  Pre-emerge phytotoxicity rating (0-100), crop damage, CORN: 0
[21]; 250 g ai/ha
  Pre-emerge phytotoxicity rating (0-100), crop damage, CORN: 0
[22]; 63 g ai/ha
  Pre-emerge phytotoxicity rating (0-100), crop damage, RICE: 0
[22]; 250 g ai/ha
  Pre-emerge phytotoxicity rating (0-100), crop damage, RICE: 0
